Experimental data taken from the NIST ThermoML archive (doi:10.1016/j.jct.2007.05.015).

How the values were obtained:
[1] = 298.15 K; 101 kPa; Liquid
[2] = xn = mol fraction of the nth substance listed; settings: 298.15 K, 101 kPa, Liquid

O=C1CCCN1 [2-pyrrolidinone]
[1]
Settings | mass density [kg/m3] | speed of sound [m/s]
– | 1107.52 | 1633.7

O=C1CCCN1 [2-pyrrolidinone] + O
[2]
Settings | mass density [kg/m3] | speed of sound [m/s]
x1 = 0.03793 | 1015.26 | 1577.4
x1 = 0.05001 | 1020.61 | 1597.6
x1 = 0.07966 | 1032.48 | 1632.1
x1 = 0.1093 | 1042.93 | 1670
x1 = 0.122 | 1046.78 | 1684.5
x1 = 0.1582 | 1056.77 | 1708
x1 = 0.1789 | 1062.24 | 1716.5
x1 = 0.2155 | 1070.34 | 1726.6
x1 = 0.2352 | 1074.91 | 1732.1
x1 = 0.2473 | 1077.08 | 1735.2
x1 = 0.2794 | 1081.92 | 1737.3
x1 = 0.3497 | 1088.62 | 1735.5
x1 = 0.4199 | 1093.46 | 1727.8
x1 = 0.5013 | 1097.41 | 1715.8
x1 = 0.549 | 1099.18 | 1708.8
x1 = 0.6133 | 1101.6 | 1698.7
x1 = 0.6705 | 1102.82 | 1683.4
x1 = 0.7037 | 1103.16 | 1678.5
x1 = 0.8117 | 1105.88 | 1658
x1 = 0.8353 | 1106.12 | 1654.6
x1 = 0.8593 | 1106.38 | 1651.3
x1 = 0.8813 | 1106.59 | 1647.9
x1 = 0.9413 | 1107.13 | 1640.7
x1 = 1 | 1107.52 | 1633.7

CC(=O)N(C)C [N,N-dimethylethanamide]
[1]
Settings | mass density [kg/m3] | speed of sound [m/s]
– | 936.34 | 1455.9

CC(=O)N(C)C [N,N-dimethylethanamide] + O
[2]
Settings | mass density [kg/m3] | speed of sound [m/s]
x1 = 0.00083 | 996.94 | 1499.8
x1 = 0.00163 | 996.87 | 1502.4
x1 = 0.03959 | 995.84 | 1616.2
x1 = 0.055 | 996.37 | 1645.5
x1 = 0.06456 | 996.62 | 1663.2
x1 = 0.08126 | 997.29 | 1678.6
x1 = 0.1 | 997.94 | 1700.3
x1 = 0.1208 | 998.5 | 1717.9
x1 = 0.1447 | 998.68 | 1730.7
x1 = 0.1714 | 998.55 | 1737.9
x1 = 0.2012 | 997.61 | 1749.4
x1 = 0.2381 | 995.72 | 1734.5
x1 = 0.2761 | 992.03 | 1719.7
x1 = 0.3245 | 988.32 | 1703.6
x1 = 0.3783 | 985.12 | 1682.1
x1 = 0.4137 | 982.41 | 1669
x1 = 0.452 | 979.26 | 1653.4
x1 = 0.4832 | 975.57 | 1638.2
x1 = 0.5372 | 969.73 | 1605.4
x1 = 0.583 | 965.29 | 1586.8
x1 = 0.6496 | 959.34 | 1559.2
x1 = 0.7074 | 953.42 | 1534.2
x1 = 0.7633 | 949.72 | 1522
x1 = 0.8342 | 946.12 | 1489
x1 = 0.9053 | 940.96 | 1482.2
x1 = 1 | 936.34 | 1455.9

CNC=O [N-methylformamide]
[1]
Settings | mass density [kg/m3] | speed of sound [m/s]
– | 999.06 | 1431.9

CNC=O [N-methylformamide] + O
[2]
Settings | mass density [kg/m3] | speed of sound [m/s]
x1 = 0.01572 | 999.1 | 1518.7
x1 = 0.03276 | 1001.38 | 1538.8
x1 = 0.05095 | 1003.6 | 1557.2
x1 = 0.07104 | 1005.91 | 1574.1
x1 = 0.09226 | 1007.87 | 1582.7
x1 = 0.1156 | 1010.1 | 1591.3
x1 = 0.141 | 1011.91 | 1601.6
x1 = 0.1714 | 1013.58 | 1606.1
x1 = 0.2005 | 1014.89 | 1606.2
x1 = 0.2339 | 1015.73 | 1603.4
x1 = 0.2714 | 1016.31 | 1598.8
x1 = 0.3047 | 1016.34 | 1594
x1 = 0.3185 | 1016.28 | 1589.3
x1 = 0.3367 | 1016.3 | 1583.7
x1 = 0.3615 | 1015.86 | 1573
x1 = 0.3853 | 1015.45 | 1560.7
x1 = 0.4166 | 1014.47 | 1551.9
x1 = 0.4456 | 1013.64 | 1542.9
x1 = 0.4785 | 1012.83 | 1534.2
x1 = 0.5109 | 1011.92 | 1526.4
x1 = 0.5497 | 1010.88 | 1514.7
x1 = 0.5805 | 1010.04 | 1507.5
x1 = 0.5913 | 1009.49 | 1502.6
x1 = 0.6164 | 1008.9 | 1497.2
x1 = 0.6335 | 1008.22 | 1493.1
x1 = 0.681 | 1006.72 | 1480.6
x1 = 0.7323 | 1005.35 | 1469
x1 = 0.779 | 1004.51 | 1462.9
x1 = 0.8279 | 1003.34 | 1454.5
x1 = 0.8535 | 1002.54 | 1449.5
x1 = 0.8763 | 1001.72 | 1446.5
x1 = 0.917 | 1001.03 | 1441.1
x1 = 0.9285 | 1000.72 | 1440.2
x1 = 1 | 999.06 | 1431.9

CN1CCCC1=O [N-methylpyrrolidone]
[1]
Settings | mass density [kg/m3] | speed of sound [m/s]
– | 1028.23 | 1531.5
